From patent US10576148B2, “Use of VAP-1 inhibitors for treating fibrotic conditions” (BIOTIE THERAPIES CORP., priority 2009, dated 2020) come the findings set out here.

SMILES strings stand for the structures.

The test system of one data set is ApoE3 Leiden mice. Nature of the data set: cuff-induced neointimal thickening in femoral artery. In kind it is in vivo, mouse. The settings on record: for intima media ratio: vs control group; for lumen size (HPS stained vessel segments): vs control group A. The source says:
Neointimal and medial thickening is an early and essential stage in the development of atherosclerotic lesions and an essential component of restenosis. It is accompanied by fibrotic changes in the neointima and media of the vascular wall. This study evaluated the role of blocking SSAO in fibrotic disease by evaluating the effect of systemic delivery (by daily ip injection) of a small molecule SSAO inhibitor (mofegiline, BTT-2089) on cuff-induced neointimal thickening (cuff-induced stenosis) in the femoral artery of ApoE3 Leiden mice that received a moderate western type diet.
Methods: 40 male ApoE3*Leiden mice (age 12 weeks) were fed a mildly hypercholesterolemic diet for 3 weeks prior to surgical cuff placement. Treatment was daily ip injections with 1) vehicle; 2) dexamethasone in drinking water at 9 mg/I; 3) daily ip injections of BTT-2089 at 10 mg/kg; 4) BTT-2089 at 30 mg/kg, all started one day prior to surgery and continued during the experimental period. At day 0 surgery was performed, i.e. a non-constricting cuff (2-3 mm in length) was placed around both femoral arteries of the mice. 10 mice of each group were sacrificed after 2 weeks for histomorphometric analysis to quantify the inhibition of accelerated atherosclerotic lesions and neointima formation. […] This was reflected in the increased lumen size in examples of HPS stained vessel segments in SSAO inhibitor treated groups when compared to a control group (FIG. 12).
A second study, in the same model, was performed with another SSAO inhibitor from a chemical class distinct from BTT-2089. This hydrazine based inhibitor (BTT-2079) was dosed at a level of 10 mg/kg by daily i.p injection and compared with BTT-2089 at 30 mg/kg. In all other respects the study was performed in the same manner except that the dexamethasone control group was omitted. […] Vascular integrity was not affected.

In the next data set the test system is C57BL/6J mice. Nature of the data set: tobacco smoke induced mouse model of COPD, BAL cell counts. The settings on record: for reduction of total number of cells in BAL: 5 mg/kg orally once daily 11 days, 1 h prior to TS. The data set is classed as in vivo. As for the experimental part:
C57BL/6J mice were exposed once daily to tobacco smoke (TS) for 11 consecutive days resulting in pulmonary inflammation 24 hours following the final TS exposure. After 11 days the response comprised of significant increases in macrophages, epithelial cells, eosinophils, neutrophils and lymphocytes.
Mice were randomly divided into study groups (n=10) and treated with a vehicle (5 ml/kg PBS pH 7.4+0.1% Polysorbate 80) or mouse monoclonal anti-VAP-1 antibody (3 mg/kg or 9 mg/kg BTT-1029 in the vehicle) intravenously on Days −1, 3, 6, and 9 at 4 h post TS exposure. Another group (n=10) received the vehicle intravenously and was exposed to air for an equivalent length of time. Two further groups of mice (n=10) received another vehicle (0.5% carboxymethylcellulose, sodium salt (CMC) in sterile water) or a reference compound (5 mg/kg Roflumilast in 0.5% CMC) orally once a day for 11 consecutive days at 1 h prior to each TS exposure. A final group (n=10) received the oral vehicle (0.5% CMC) and was exposed to air for an equivalent length of time.
All results were presented as individual data points for each animal and the mean value calculated for each group. Where tests for normality were positive the data initially was subjected to a one way analysis of variance test (ANOVA), followed by a Bonferroni correction for multiple comparisons in order to test for significance between treatment groups. A “p” value of ≤0.05 was considered to be statistically significant.
All data was also subjected to the Bartlets test for equal variances and for the majority of studies variances were generally equal, however as occurred in this study, occasionally some treatment groups would give a positive result. Non parametric analyses were therefore also used. As the data was normally distributed, parametric analyses (ANOVA) were quoted.
Percentage inhibitions were automatically calculated within the Excel spreadsheets for the cell data using the formula below: […]

Setting [1] is: second study, 10 mg/kg i.p. daily.
Setting [2] is: first study, 10 mg/kg ip daily, 2 weeks, vs NaCl 0.9% control.
Where [3] appears, read: first study, 30 mg/kg ip daily, 2 weeks, vs NaCl 0.9% control.
[4] abbreviates: second study, 30 mg/kg i.p. daily.

For the compound `CN(N)[C@H](c1ccccc1)[C@@H](O)c1ccccc1` [BTT-2079, (1S,2R)-2-(1-methylhydrazino)-1,2-diphenylethanol], in the data set with ApoE3 Leiden mice (setting [1]), the lumen area result is “No significant changes”, the media area entry is given as “No significant changes”, the neointima formation result was “significant reduction” and the percentage lumen stenosis entry is “only significantly less in the BTT-2089 30 mg/kg group”. Further, in the data set on ApoE3 Leiden mice (setting [1]), the vascular integrity result is recorded as “not affected”, the vessel wall diameter result is “No significant changes” and the intima media ratio result is listed as “significantly less”.
Consider `O=C(Nc1c(Cl)cncc1Cl)c1ccc(OC(F)F)c(OCC2CC2)c1` [Roflumilast], for which, in the data set on C57BL/6J mice (5 mg/kg orally once daily), the “number of eosinophils in BAL” value is reported as “did not significantly reduce”, the “number of macrophages in BAL” value was “did not significantly reduce”, the “reduction of epithelial cells in BAL” value is listed as 51% and the “reduction of lymphocytes in BAL” value was determined as 65%. The “reduction of neutrophils in BAL” value in the data set on C57BL/6J mice (5 mg/kg orally once daily) came out at 63%. Moreover, in the data set on C57BL/6J mice, the “reduction of total number of cells in BAL” value is 41%. Besides, the “reduction of total number of cells in BAL” value in the data set on C57BL/6J mice (listed as roflumilast) is given as “reduction”.
With `NC/C(=C/F)CCc1ccc(F)cc1` [BTT-2089, (E)-2-(4-fluorophenethyl)-3-fluoroallylamine], in the data set on ApoE3 Leiden mice (setting [2]), the media formation result is listed as “significant reduction” and the neointima formation result is given as “significant reduction”. In the data set with ApoE3 Leiden mice (first study, 10 mg/kg), the “lumen size (HPS stained vessel segments)” value was “increased”. Also, in the data set with ApoE3 Leiden mice (setting [3]), the media formation result is recorded as “significant reduction” and the neointima formation entry is listed as “significant reduction”. Besides, the “lumen size (HPS stained vessel segments)” value with ApoE3 Leiden mice (first study, 30 mg/kg) is listed as “increased”. In the data set with ApoE3 Leiden mice (setting [4]), the lumen area entry is “No significant changes”, the media area result is reported as “No significant changes”, the neointima formation entry was “significant reduction” and the percentage lumen stenosis entry was “significant reduction”. Moreover, in the data set with ApoE3 Leiden mice (setting [4]), the vascular integrity result is reported as “not affected”, the vessel wall diameter result is reported as “No significant changes” and the intima media ratio result is “significantly less”.
